Source: patent US10183039B2, “Methods for the production of collagen IV” (Vanderbilt University, priority 2013, dated 2019)

Tests used:
[1] = target: T1, peroxidasin (Mus musculus, UniProt Q3UQ28); assay: In vitro basement membrane (uncrosslinked PFHR-9 matrix) reaction with halides and H2O2; assay type: biochemical; conditions: for S═N bond formation in isolated matrix: 10 mM phosphate pH 7.4, 100 mM KF, 1 mM H2O2, 1 h at 37° C.
T1 construct: Cultured murine PFHR9 cells synthesize collagen IV networks that contain sulfilimine crosslinks due to the activity of PXDN; endogenous in cells; host or cells: PFHR-9 cells (isolated matrix from KI-treated culture)
T1 sequence (Q3UQ28 24-1475): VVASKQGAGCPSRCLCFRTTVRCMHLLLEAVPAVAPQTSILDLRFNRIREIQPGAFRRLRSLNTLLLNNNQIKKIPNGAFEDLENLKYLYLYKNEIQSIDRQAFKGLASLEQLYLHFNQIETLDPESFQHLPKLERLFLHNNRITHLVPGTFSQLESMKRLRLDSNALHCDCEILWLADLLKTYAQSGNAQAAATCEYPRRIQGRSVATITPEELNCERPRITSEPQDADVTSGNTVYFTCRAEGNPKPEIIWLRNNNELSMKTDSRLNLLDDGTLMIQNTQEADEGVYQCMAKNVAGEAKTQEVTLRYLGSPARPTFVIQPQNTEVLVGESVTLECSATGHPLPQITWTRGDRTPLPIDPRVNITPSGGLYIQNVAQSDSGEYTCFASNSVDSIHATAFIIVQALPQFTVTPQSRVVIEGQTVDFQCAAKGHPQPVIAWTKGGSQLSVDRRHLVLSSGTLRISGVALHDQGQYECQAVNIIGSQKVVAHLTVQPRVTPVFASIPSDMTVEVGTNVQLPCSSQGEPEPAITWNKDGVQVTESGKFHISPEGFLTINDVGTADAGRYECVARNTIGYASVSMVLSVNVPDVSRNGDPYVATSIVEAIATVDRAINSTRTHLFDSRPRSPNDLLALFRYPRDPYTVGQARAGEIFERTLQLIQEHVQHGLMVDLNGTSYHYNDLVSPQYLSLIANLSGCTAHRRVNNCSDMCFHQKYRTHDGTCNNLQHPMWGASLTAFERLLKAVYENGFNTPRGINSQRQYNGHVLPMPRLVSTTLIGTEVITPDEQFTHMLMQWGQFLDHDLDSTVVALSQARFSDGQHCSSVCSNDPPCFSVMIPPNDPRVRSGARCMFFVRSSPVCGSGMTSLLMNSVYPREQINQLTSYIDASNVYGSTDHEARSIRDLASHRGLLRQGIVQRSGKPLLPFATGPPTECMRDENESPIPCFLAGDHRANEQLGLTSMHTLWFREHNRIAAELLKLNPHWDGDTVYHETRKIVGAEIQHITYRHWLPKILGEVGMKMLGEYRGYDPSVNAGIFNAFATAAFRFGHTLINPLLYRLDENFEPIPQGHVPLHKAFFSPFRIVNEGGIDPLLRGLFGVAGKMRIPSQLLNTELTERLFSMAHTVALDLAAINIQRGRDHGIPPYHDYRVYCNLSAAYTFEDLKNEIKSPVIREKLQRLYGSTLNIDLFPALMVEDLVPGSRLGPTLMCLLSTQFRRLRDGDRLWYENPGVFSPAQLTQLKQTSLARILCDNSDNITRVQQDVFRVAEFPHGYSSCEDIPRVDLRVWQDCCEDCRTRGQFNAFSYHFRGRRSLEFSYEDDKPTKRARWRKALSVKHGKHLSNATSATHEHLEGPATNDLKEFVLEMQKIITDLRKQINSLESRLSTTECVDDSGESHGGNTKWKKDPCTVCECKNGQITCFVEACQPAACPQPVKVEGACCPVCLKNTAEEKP
Experimental: (FIG. 8A) Matrix pellets isolated from KI-treated PFHR9 cell culture were extensively washed into 10 mM phosphate buffer (pH 7.4) supplemented with 100 mM KF to maintain ionic strength. Potassium salts of Cl— or Br— were added in indicated amounts. 1 hr reactions at 37° C. were initiated by addition of H2O2 to 1 mM and stopped by freezing at −20° C. Coomassie blue-stained gels after collagenase digestion of the samples and SDS-PAGE (FIG. 8B) Schematic of Br-Free chloride salt purification apparatus and setup. […] Reagent KCl was commercially obtained and unaltered prior to analysis. 100 mM solutions were made with 18MΩ deionized water. (FIG. 8C) Coomassie blue stained gel of collagenase digested PFHR-9 matrix reaction assay. Reaction buffered contained 10 mM phosphate buffer (pH 7.4), 100 mM Br-Free or Commercially obtained reagent grade KCl, as well as 1 mM H2O2 and 200 μM PHG where appropriate. (FIG. 8D) SDS-PAGE and coomassie blue stain of hPXDN (27.25 nM) and NC1 domain (1.3 μM) reaction and subsequent densiometric quantitation of S═N bond formation stiochiometry in response to NaBr addition. hPXDN and PFHR-9 NC1 domain were prepared and purified as described (5), except with all buffers for all purification steps (dialysis, chromatography, gradient ultracentrifugation) made with Br-Free chloride salts. Reactions were run for 10 minutes at 37° C. with 10 μM H2O2 as the terminal oxidant. Dose-response curve run in the presence of 1× Br-Free PBS. Reactions were quenched with 0.2 mg/ml Catalase, 20 mM Methionine, and 1 mM PHG. EC50 value±95% C.I. from two independent experiments with each data point plotted and fit.
Uncrosslinked PFHR9 matrix was extensively washed into 10 mM phosphate buffer (pH 7.4) that was supplemented with 100 mM KF to maintain ionic strength. One hour reactions at 37° C. were initiated by addition of H2O2 to 1 mM and stopped by freezing at −20° C. […] Samples were digested with collagenase at 37° C. overnight and visualized by SDS-PAGE using 12% gels under non-reducing conditions with Coomassie staining.
PFHR-9 cells treated with potassium iodide (1-10 mM) to eliminate NC1 hexamer crosslinks were used for basement membrane isolation. To test halide dependency, the inventors established halide-free conditions by washing extensively (at least five times) with 10 mM sodium phosphate pH 7.4. To try to extract or inactivate endogenous basement membrane peroxidase activity, the inventors extracted the matrix preparation twice with 2M guanidine-Cl, 50 mM Tris-Cl pH 7.5 and 10 mM EDTA-Na pH 8 followed by extensive washing with 1×PBS. Basement membrane was resuspended in the desired buffer with or without cofactors and inhibitors to examine in vitro NC1 crosslinking under various conditions. Basement membranes were collagenase solubilized to delineate collagen IV NC1 sulfilimine crosslink formation with SDS-PAGE and Coomassie blue staining membrane was isolated, washed extensively and resuspended in 1×PBS. Azide (0-10 mM) and 1 mM H2O2 were added and allowed to react for 1 h at 37° C. The matrix was pelleted, washed extensively with 1×PBS and solubilized with 1×PBS plus 2% (w/v) SDS. Solubilized proteins were reacted with 100 μM Tris[(1-benzyl-1H-1,2,3-triazol-4-yl)methyl]amine (Anaspec), 1 mM Tris(2-carboxyethyl)phosphine hydrochloride (ThermoFisher Pierce), 1 mM cupric sulfate and 100 μM biotin alkyne (PEG4 carboxamide-propargyl biotin; Life Technologies) for 1 h at 37° C. Click chemistry reactions were quenched with 1 mM 3′-azido-3′-deoxythymidine (Sigma). For avidin-HRP detection, samples were electrophoresed under reducing conditions, transferred to nitrocellulose membranes and probed with streptavidin-HRP according to manufacturer instructions (ThermoFisher Pierce). To isolate biotinylated proteins, the inventors precipitated click reaction products with two volumes of cold acetone to remove reactants, washed them with 70% (v/v) acetone and then resolubilized them in 1×PBS plus 2% SDS.

[2] = target: T2, collagen IV NC1 hexamer (Mus musculus, UniProt P02463+P08122); assay: Hypohalous acid oxidation of purified uncrosslinked NC1 hexamer; conditions: for effect of pretreatment on S═N bond formation by HOBr: NC1 hexamer pretreated with the substance, then treated with HOBr; for crosslinked dimeric subunits (percentage of dimeric subunit): 500 nM NC1 hexamer, 5 μM hypohalous acid, 30 min at 37° C. (FIG. 4A)
T2 sequence (P02463 1445-1669 limits assumed): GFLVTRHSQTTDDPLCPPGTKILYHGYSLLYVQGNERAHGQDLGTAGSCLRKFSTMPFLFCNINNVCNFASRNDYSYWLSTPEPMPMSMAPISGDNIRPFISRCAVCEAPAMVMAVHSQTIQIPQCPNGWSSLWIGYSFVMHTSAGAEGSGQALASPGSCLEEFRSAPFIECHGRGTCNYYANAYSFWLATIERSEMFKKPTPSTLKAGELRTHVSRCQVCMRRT
T2 sequence (P08122 1484-1707 limits assumed): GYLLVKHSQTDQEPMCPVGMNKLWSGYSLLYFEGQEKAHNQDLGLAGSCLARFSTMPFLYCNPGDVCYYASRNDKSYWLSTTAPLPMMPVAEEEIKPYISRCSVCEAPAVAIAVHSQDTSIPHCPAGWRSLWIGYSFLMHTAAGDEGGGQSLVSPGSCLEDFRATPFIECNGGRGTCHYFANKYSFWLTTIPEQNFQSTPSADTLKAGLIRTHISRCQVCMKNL
Experimental: (FIG. 4A) Five hundred nanomolar collagen IV NC1 hexamer (3 μM potential crosslinks) was incubated alone (control) or with 5 μM hypochlorous (HOCl) or hypobromous acid (HOBr) for 30 min at 37° C. […] (FIGS. 4B-D) 16 nM myeloperoxidase (MPO) (FIG. 4B), eosinophil peroxidase (EPO) (FIG. 4C) or lactoperoxidase (LPO) (FIG. 4D) were reacted with 500 nM NC1 hexamer (3 μM potential crosslinks) for varying time points in 1×PBS with or without 10 μM H2O2. In the case of LPO, all reactions proceeded for 60 min. Collagen IV-sulfilimine crosslink content was visualized after SDS-PAGE and Coomassie blue staining of the reactions. Each gel is representative of three independent experiments. PHG, phloroglucinol; MW, molecular weight.
FIGS. 9A-D. Chemical mechanism of sulfilimine formation within the NC1 hexamer. (FIG. 9A) Purified uncrosslinked NC1 hexamer (5 μM) was reacted for 5 minutes at 37° with the indicated amounts of hypohalous acids and analyzed by SDS-PAGE. […] Values represent mean±S.D. (n=3). (FIG. 7B) Uncrosslinked NC1 hexamer (1.3 μM) in Br-Free PBS was preoxidzed with indicated amounts of HOCl for 1 min at 37 C, followed by post-oxidation with the addition of 8 mol eq. HOBr (or HOCl as a control) which was reacted for an additional minute at 37° C., then quenched with 20 mM methionine. Gel is representative of two experiments (FIG. 9C) XIC analysis of the residual monomeric NC1 subunit following HOCl oxidation (10 mol eq) compared to input NC1 monomer after SDS-PAGE and in-gel trypsin digestion. ^16O addition to the methionine residues was confirmed by MS3 analysis. (FIG. 9D) Met93 oxidation pathway consistent with experimental data and the resultant enthalphic landscape for S═N bond formation within the NC1 hexamer.
(FIG. 15) Fifty micromolar of hypohalous oxidants were added to 5 μM uncrosslinked NC1 domains, and reacted for 5 minutes at 37° C. before quenching by adding L-methionine to 1 mM final concentration. […] Experiments were run in triplicate and analyzed by 12% non-reducing SDS-PAGE and ImageJ.
The efficiency of HOBr as a reagent was compared to other hypohalous acids, during a 5′ reaction with uncrosslinked hexamers containing 5 μM NC1 domains.
The inventors therefore tested the molar efficiency of oxidation of purified uncrosslinked NC1 hexamer with HOCl and HOBr (FIG. 9A). […] To test this, they pretreated uncrosslinked NC1 hexamer with varying concentrations of HOCl, then treated with HOBr. […] As an independent approach to testing the dead-end sulfoxide hypothesis, the inventors pretreated NC1 hexamer with escalating levels of H2O2, a reagent known to generate methionine sulfoxides (Liang et al., 2012). […] They next decided to directly visualize the peptide containing Met93, the S donor of the S═N bond, within the residual monomeric NC1 fraction after HOCl oxidation and compare its oxidation status to untreated NC1 hexamer.

[3] = tested on: PFHR-9 cells; assay: Collagen IV sulfilimine crosslink formation in PFHR-9 cell culture (NC1 hexamer, SDS-PAGE); assay type: cell-based, mouse; conditions: for effect on NC1 dimer / crosslink formation in culture: PFHR9 matrix grown 5-8 days with potassium halide salts, SDS-PAGE; for IC50: halide/pseudohalide screen in cell culture, read-out: IC50, inhibition of S═N formation
[4] = matrix grown 5-8 days with potassium salts, 95% CI

[Cl-].[K+] [Br-free KCl, KCl]
dimer formation with bromide-free chloride as halide source ([1]; 100 mM Br-free chloride salt, 1 mM H2O2, isolated PFHR-9 matrix): did not support dimer formation to levels comparable with untreated controls

[F-].[K+] [Fluoride, potassium fluoride]
S═N bond formation in isolated matrix [1]: inert

OO [H2O2, hydrogen peroxide]
sulfilimine bond formation in isolated basement membrane ([1]; inhibitor removed, with versus without H2O2 (FIG. 2C)): Sulfilimine bonds formed rapidly
effect of pretreatment on S═N bond formation by HOBr [2]: dose-dependent decrease in the crosslinking efficacy of HOBr

OCl [HOCl, hypochlorous acid]
crosslinked dimeric subunits (percentage of dimeric subunit) [2]: increased significantly
crosslinked dimeric subunits (percentage of dimeric subunit) ([2]; listed as hypochlorous acid): yielded crosslinked dimeric subunits
concentration required to drive S═N bond formation ([2]; 5 μM NC1 hexamer, 5 minutes at 37° (FIG. 9A)): 50 µM
effect of pretreatment on S═N bond formation by HOBr [2]: decreased with pretreatment of increasing levels of HOCl
S═N bond formation as share of total Met93 oxidized ([2]; oxidation event 1 (OE1), S—Cl or S—Br halosulfonium intermediate): 19%

[Br-].[K+] [KBr, potassium bromide]
effect on NC1 dimer / crosslink formation in culture [3]: dimer enhancement
EC50 ([3]; halide screen in cell culture, matrix grown 5-8 days with potassium salts, 95% CI, read-out: EC50, enhancement of S═N formation): 75 µM

N#C[S-].[K+] [KSCN, potassium thiocyanate]
effect on NC1 dimer / crosslink formation in culture [3]: dimer inhibition
effect on NC1 dimer / crosslink formation in culture ([3]; listed as SCN^−): potent inhibitor of peroxidasin-mediated crosslink formation
IC50 [3, 4]: 17 µM

[I-].[K+] [potassium iodide]
S═N bond formation in isolated matrix [1]: demonstrated no S═N formation
S═N bond formation in isolated matrix ([1]; listed as KI): did not faciliate crosslinking
effect on NC1 dimer / crosslink formation in culture [3]: dimer inhibition
IC50 [3, 4]: 84 µM
formation of collagen IV crosslinks ([3]; inhibitor present during cellular deposition of basement membrane, FIG. 2A: PHG 50 μM, MMI 1 mM, KI 10 mM, 3-AT 10 mM, BAPN 500 μM, putrescine 2.5 mM): inhibited collagen IV crosslink formation
